The record followed here is US7750003B2, “Compounds-943” (AstraZeneca AB, priority 2006, dated 2010).

Molecules are shown by their SMILES. pIC50: −log10 of the molar value.

For the experiment, the system named is phosphorylation of Serine 473 in Akt in MDA-MB-468 human breast adenocarcinoma cells. Put plainly: In vitro phospho-Ser473 Akt assay (Test (c)). Format: cell-based. Conditions: Homo sapiens, MDA-MB-468, 2 h, MDA-MB-468 cells, 2 hours incubation; read-out: Test (c): IC50 versus Serine 473 in Akt. As to the method: (c) In Vitro Phospho-Ser473 Akt Assay
This assay determines the ability of test compounds to inhibit phosphorylation of Serine 473 in Akt as assessed using Acumen Explorer technology (Acumen Bioscience Limited), a plate reader that can be used to rapidly quantitate features of images generated by laser-scanning.
A MDA-MB-468 human breast adenocarcinoma cell line (LGC Promochem, Teddington, Middlesex, UK, Catalogue No. HTB-132) was routinely maintained at 37° C. with 5% CO2 up to a confluency of 70-90% in DMEM containing 10% heat-inactivated FCS and 1% L-glutamine.
For the assay, the cells were detached from the culture flask using ‘Accutase’ (Innovative Cell Technologies Inc., San Diego, Calif., USA; Catalogue No. AT104) using standard tissue culture methods and resuspended in media to give 1.7×10^5 cells per mL. Aliquots (90 μl) were seeded into each of the inner 60 wells of a black Packard 96 well plate (PerkinElmer, Boston, Mass., USA; Catalogue No. 6005182) to give a density of 15000 cells per well. Aliquots (90 μl) of culture media were placed in the outer wells to prevent edge effects. The cells were incubated overnight at 37° C. with 5% CO2 to allow them to adhere.
On day 2, the cells were treated with test compounds and incubated for 2 hours at 37° C. with 5% CO2. Test compounds were prepared as 10 mM stock solutions in DMSO and serially diluted as required with growth media to give a range of concentrations that were 10-fold the required final test concentrations. Aliquots (10 μl) of each compound dilution were placed in a well (in triplicate) to give the final required concentrations. As a minimum response control, each plate contained wells having a final concentration of 100 μM LY294002 (Calbiochem, Beeston, UK, Catalogue No. 440202). As a maximum response control, wells contained 1% DMSO instead of test compound. Following incubation, the contents of the plates were fixed by treatment with a 1.6% aqueous formaldehyde solution (Sigma, Poole, Dorset, UK, Catalogue No. F1635) at room temperature for 1 hour.
All subsequent aspiration and wash steps were carried out using a Tecan 96 well plate washer (aspiration speed 10 mm/sec). The fixing solution was removed and the contents of the plates were washed with phosphate-buffered saline (PBS; 50 μl; Gibco, Catalogue No. 10010015). The contents of the plates were treated for 10 minutes at room temperature with an aliquot (50 μl) of a cell permeabilisation buffer consisting of a mixture of PBS and 0.5% Tween-20. The ‘permeabilisation’ buffer was removed and non-specific binding sites were blocked by treatment for 1 hour at room temperature of an aliquot (50 μl) of a blocking buffer consisting of 5% dried skimmed milk [‘Marvel’ (registered trade mark); Premier Beverages, Stafford, GB] in a mixture of PBS and 0.05% Tween-20. The ‘blocking’ buffer was removed and the cells were incubated for 1 hour at room temperature with rabbit anti phospho-Akt (Ser473) antibody solution (50 μl per well; Cell Signalling, Hitchin, Herts, U.K., Catalogue No 9277) that had been diluted 1:500 in ‘blocking’ buffer. Cells were washed three times in a mixture of PBS and 0.05% Tween-20. Subsequently, cells were incubated for 1 hour at room temperature with Alexafluor488 labelled goat anti-rabbit IgG (50 μl per well; Molecular Probes, Invitrogen Limited, Paisley, UK, Catalogue No. A11008) that had been diluted 1:500 in ‘blocking’ buffer. Cells were washed 3 times with a mixture of PBS and 0.05% Tween-20. An aliquot of PBS (50 μl) was added to each well and the plates were sealed with black plate sealers and the fluorescence signal was detected and analysed.
Fluorescence dose response data obtained with each compound were analysed and the degree of inhibition of Serine 473 in Akt was expressed as an IC50 value.
What is called pIC50 is the IC50 on a negative log10 scale, so that one unit is a factor of ten. For the compound `C[C@H]1COCCN1c1cc(CN(C)C)nc(-c2ccc(NC(=O)NC3CC3)cc2)n1` [Example 49d, 3-cyclopropyl-1-[4-[4-(dimethylaminomethyl)-6-[(3S)-3-methylmorpholin-4-yl]pyrimidin-2-yl]phenyl]urea], the pIC50 was 6.21. Regarding `C[C@H]1COCCN1c1cc(CN2CCNC(=O)C2)nc(-c2ccc(NC(=O)NC3CC3)cc2)n1` [Example 49j, 3-cyclopropyl-1-[4-[4-[(3S)-3-methylmorpholin-4-yl]-6-[(3-oxopiperazin-1-yl)methyl]pyrimidin-2-yl]phenyl]urea], the pIC50 was 6.89. The result for `C[C@H]1COCCN1c1cc(CS(=O)(=O)CCO)nc(-c2ccc(NC(=O)NCc3cnn(C)c3)cc2)n1` [Example 53b, 1-[4-[4-(2-hydroxyethylsulfonylmethyl)-6-[(3S)-3-methylmorpholin-4-yl]pyrimidin-2-yl]phenyl]-3-[(1-methylpyrazol-4-yl)methyl]urea] reads 5.52. Regarding `COCc1cc(N2CCOC[C@@H]2C)nc(-c2ccc(NC(=O)NC3CC3)cc2)n1` [Example 54, 3-Cyclopropyl-1-[4-[4-(methoxymethyl)-6-[(3S)-3-methylmorpholin-4-yl]pyrimidin-2-yl]phenyl]urea], the pIC50 was 6.96.

In the case of `CNC(=O)Nc1ccc(-c2nc(N3CCOC[C@@H]3C)cc(C(C)(C)S(=O)(=O)C3CC3)n2)cc1` [Example 57, 1-[4-[4-(2-Cyclopropylsulfonylpropan-2-yl)-6-[(3S)-3-methylmorpholin-4-yl]pyrimidin-2-yl]phenyl]-3-methyl-urea], the pIC50 is 6.60. The result for `C[C@H]1COCCN1c1cc(C(C)(C)S(=O)(=O)C2CC2)nc(-c2ccc(NC(=O)NC(C)(C)CO)cc2)n1` [Example 57a, 1-[4-[4-(2-cyclopropylsulfonylpropan-2-yl)-6-[(3S)-3-methylmorpholin-4-yl]pyrimidin-2-yl]phenyl]-3-(1-hydroxy-2-methyl-propan-2-yl)urea] reads 7.19; that for `C[C@H]1COCCN1c1cc(C(C)(C)S(=O)(=O)C2CC2)nc(-c2ccc(NC(=O)Nc3cnn(C)c3)cc2)n1` [Example 57c, 1-[4-[4-(2-cyclopropylsulfonylpropan-2-yl)-6-[(3S)-3-methylmorpholin-4-yl]pyrimidin-2-yl]phenyl]-3-(1-methylpyrazol-4-yl)urea], 6.44; that for `CNC(=O)Nc1ccc(-c2nc(CS(=O)(=O)C3CC3)cc(N3CCOC[C@@H]3C)n2)cc1` [Example 57d, 1-[4-[4-(cyclopropylsulfonylmethyl)-6-[(3S)-3-methylmorpholin-4-yl]pyrimidin-2-yl]phenyl]-3-methyl-urea], 6.08. Then `C[C@H]1COCCN1c1cc(CS(=O)(=O)C2CC2)nc(-c2ccc(NC(=O)NC(C)(C)CO)cc2)n1` [Example 57e, 1-[4-[4-(cyclopropylsulfonylmethyl)-6-[(3S)-3-methylmorpholin-4-yl]pyrimidin-2-yl]phenyl]-3-(1-hydroxy-2-methyl-propan-2-yl)urea], with 6.42. As to `C[C@H]1COCCN1c1cc(CS(=O)(=O)C2CC2)nc(-c2ccc(NC(=O)NCCN(C)C)cc2)n1` [Example 57f, 1-[4-[4-(cyclopropylsulfonylmethyl)-6-[(3S)-3-methylmorpholin-4-yl]pyrimidin-2-yl]phenyl]-3-(2-dimethylaminoethyl)urea], the pIC50 is 6.14.

`C[C@H]1COCCN1c1cc(CS(=O)(=O)C2CC2)nc(-c2ccc(NC(=O)Nc3cnn(C)c3)cc2)n1` [Example 57g, 1-[4-[4-(cyclopropylsulfonylmethyl)-6-[(3S)-3-methylmorpholin-4-yl]pyrimidin-2-yl]phenyl]-3-(1-methylpyrazol-4-yl)urea]: the pIC50 was 7.02.

As to `C[C@H]1COCCN1c1cc(C(C)(C)S(=O)(=O)C2CC2)nc(-c2ccc(NC(=O)NC3CCC3)cc2)n1` [Example 57h, 3-cyclobutyl-1-[4-[4-(2-cyclopropylsulfonylpropan-2-yl)-6-[(3S)-3-methylmorpholin-4-yl]pyrimidin-2-yl]phenyl]urea], the negative-log IC50 (pIC50) was 7.18.
